Results reported in PubChem BioAssay (NCI).
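At the GI50, growth is halved. TGI is the concentration that stops growth completely.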

Columns and labels:
Experiment in all cases: DTP human tumour cell line panel, 384-well format
NCI/ADR-RES ovarian = tested on: NCI/ADR-RES ovarian
RPMI-8226 leukemia = tested on: RPMI-8226 leukemia
UACC-257 melanoma = tested on: UACC-257 melanoma
SK-OV-3 ovarian = tested on: SK-OV-3 ovarian
SF-295 CNS = tested on: SF-295 CNS
OVCAR-5 ovarian = tested on: OVCAR-5 ovarian
OVCAR-4 ovarian = tested on: OVCAR-4 ovarian
MDA-MB-231 breast = tested on: MDA-MB-231 breast
IGROV1 ovarian = tested on: IGROV1 ovarian
RXF 393 renal = tested on: RXF 393 renal
MDA-MB-435 melanoma = tested on: MDA-MB-435 melanoma
DU-145 prostate = tested on: DU-145 prostate
UACC-62 melanoma = tested on: UACC-62 melanoma
NCI-H226 lung = tested on: NCI-H226 lung
NCI-H522 lung = tested on: NCI-H522 lung
SK-MEL-28 melanoma = tested on: SK-MEL-28 melanoma
HL-60(TB) leukemia = tested on: HL-60(TB) leukemia
BT-549 breast = tested on: BT-549 breast
ACHN renal = tested on: ACHN renal
LOX IMVI melanoma = tested on: LOX IMVI melanoma
PC-3 prostate = tested on: PC-3 prostate
COLO 205 colon = tested on: COLO 205 colon
A498 renal = tested on: A498 renal
T-47D breast = tested on: T-47D breast
K-562 leukemia = tested on: K-562 leukemia
TK-10 renal = tested on: TK-10 renal
HT29 colon = tested on: HT29 colon
UO-31 renal = tested on: UO-31 renal
MOLT-4 leukemia = tested on: MOLT-4 leukemia
SW-620 colon = tested on: SW-620 colon
SK-MEL-2 melanoma = tested on: SK-MEL-2 melanoma
SR leukemia = tested on: SR leukemia
CCRF-CEM leukemia = tested on: CCRF-CEM leukemia
A549 NSCLC = tested on: A549 NSCLC
KM12 colon = tested on: KM12 colon
HCT-15 colon = tested on: HCT-15 colon
OVCAR-8 ovarian = tested on: OVCAR-8 ovarian
U251 glioblastoma = tested on: U251 glioblastoma
786-0 renal = tested on: 786-0 renal
HCC-2998 colon = tested on: HCC-2998 colon
SNB-19 CNS = tested on: SNB-19 CNS
MCF7 breast = tested on: MCF7 breast
HOP-92 NSCLC = tested on: HOP-92 NSCLC
NCI-H23 lung = tested on: NCI-H23 lung
HCT-116 colon = tested on: HCT-116 colon
CAKI-1 renal = tested on: CAKI-1 renal
MALME-3M melanoma = tested on: MALME-3M melanoma
SF-539 CNS = tested on: SF-539 CNS
SK-MEL-5 melanoma = tested on: SK-MEL-5 melanoma
HOP-62 NSCLC = tested on: HOP-62 NSCLC
NCI-H460 NSCLC = tested on: NCI-H460 NSCLC
NCI-H322M lung = tested on: NCI-H322M lung
SN12C renal = tested on: SN12C renal
MDA-MB-468 breast = tested on: MDA-MB-468 breast
M14 melanoma = tested on: M14 melanoma
OVCAR-3 ovarian = tested on: OVCAR-3 ovarian

In the case of `C=CCN1CC(=O)N2[C@@H](Cc3ccc(O)cc3F)C(=O)N(Cc3cccc(N4CC(N5CCN(CC)CC5)C4)n3)C[C@@H]2N1C(=O)NCc1ccccc1`, the GI50 (NCI/ADR-RES ovarian) is reported as 3130 nM, the TGI (NCI/ADR-RES ovarian) is reported as 23600 nM and the GI50 (RPMI-8226 leukemia) is reported as 17.8 nM. It also gave a TGI (RPMI-8226 leukemia) of 33.9 nM, a GI50 (UACC-257 melanoma) of 50.2 nM and a TGI (UACC-257 melanoma) of 333 nM. For the same compound, the GI50 (SK-OV-3 ovarian) was 25.5 nM, the TGI (SK-OV-3 ovarian) was 68.7 nM and the GI50 (SF-295 CNS) was 79.8 nM. For the same compound, the TGI (SF-295 CNS) was 528 nM, the GI50 (OVCAR-5 ovarian) was 20.4 nM and the TGI (OVCAR-5 ovarian) was 66.1 nM. It also gave a GI50 (OVCAR-4 ovarian) of 23.2 nM, a TGI (OVCAR-4 ovarian) of 74.1 nM and a GI50 (MDA-MB-231 breast) of 10.8 nM. The TGI (MDA-MB-231 breast) was 34.9 nM, the GI50 (IGROV1 ovarian) was 23.1 nM and the TGI (IGROV1 ovarian) was 59.9 nM. The GI50 (RXF 393 renal) was 62.5 nM, the TGI (RXF 393 renal) was 593 nM and the GI50 (MDA-MB-435 melanoma) was 60.8 nM. For the same compound, the TGI (MDA-MB-435 melanoma) was 32400 nM, the GI50 (DU-145 prostate) was 59.4 nM and the TGI (DU-145 prostate) was 23000 nM. The GI50 (UACC-62 melanoma) was 21.4 nM, the TGI (UACC-62 melanoma) was 67.5 nM and the GI50 (NCI-H226 lung) was 28.4 nM. It also gave a TGI (NCI-H226 lung) of 372 nM, a GI50 (NCI-H522 lung) of 16.2 nM and a TGI (NCI-H522 lung) of 82.7 nM. For the same compound, the GI50 (SK-MEL-28 melanoma) was 25.9 nM, the TGI (SK-MEL-28 melanoma) was 77 nM and the GI50 (HL-60(TB) leukemia) was 57.8 nM. For the same compound, the TGI (HL-60(TB) leukemia) was 293 nM, the GI50 (BT-549 breast) was 27.6 nM and the TGI (BT-549 breast) was 98.4 nM. For the same compound, the GI50 (ACHN renal) was 231 nM, the TGI (ACHN renal) was 1990 nM and the GI50 (LOX IMVI melanoma) was 33.7 nM. The TGI (LOX IMVI melanoma) was 98.7 nM, the GI50 (PC-3 prostate) was 27.8 nM and the TGI (PC-3 prostate) was 91.1 nM. The GI50 (COLO 205 colon) was 19.8 nM, the TGI (COLO 205 colon) was 80.3 nM and the GI50 (A498 renal) was 35.4 nM. It also gave a TGI (A498 renal) of 232 nM, a GI50 (T-47D breast) of 27.2 nM and a TGI (T-47D breast) of 193 nM. It also gave a GI50 (K-562 leukemia) of 35.9 nM, a TGI (K-562 leukemia) of 18100 nM and a GI50 (TK-10 renal) of 52.6 nM. It also gave a TGI (TK-10 renal) of 637 nM, a GI50 (HT29 colon) of 52.1 nM and a TGI (HT29 colon) of 12900 nM. It also gave a GI50 (UO-31 renal) of 408 nM, a TGI (UO-31 renal) of 3690 nM and a GI50 (MOLT-4 leukemia) of 10.4 nM. The TGI (MOLT-4 leukemia) was 22.6 nM, the GI50 (SW-620 colon) was 84.7 nM and the TGI (SW-620 colon) was greater than 100000 nM. It also gave a GI50 (SK-MEL-2 melanoma) of 20.6 nM, a TGI (SK-MEL-2 melanoma) of 83.1 nM and a GI50 (SR leukemia) of 26.2 nM. It also gave a TGI (SR leukemia) of 58.4 nM, a GI50 (CCRF-CEM leukemia) of 29.8 nM and a TGI (CCRF-CEM leukemia) of 231 nM. It also gave a GI50 (A549 NSCLC) of 31.5 nM, a TGI (A549 NSCLC) of 3130 nM and a GI50 (KM12 colon) of 36.8 nM. It also gave a TGI (KM12 colon) of 32300 nM, a GI50 (HCT-15 colon) of 315 nM and a TGI (HCT-15 colon) of 3760 nM. For the same compound, the GI50 (OVCAR-8 ovarian) was 23.8 nM, the TGI (OVCAR-8 ovarian) was 282 nM and the GI50 (U251 glioblastoma) was 23.6 nM. It also gave a TGI (U251 glioblastoma) of 88.8 nM, a GI50 ([…]-0 renal) of 35.9 nM and a TGI (786-0 renal) of 680 nM. For the same compound, the GI50 (HCC-2998 colon) was 41.3 nM, the TGI (HCC-2998 colon) was 398 nM and the GI50 (SNB-19 CNS) was 25 nM. The TGI (SNB-19 CNS) was 226 nM, the GI50 (MCF7 breast) was 472 nM and the TGI (MCF7 breast) was 46400 nM. For the same compound, the GI50 (HOP-92 NSCLC) was 13.9 nM, the TGI (HOP-92 NSCLC) was 46.4 nM and the GI50 (NCI-H23 lung) was 24 nM. The TGI (NCI-H23 lung) was 91.2 nM, the GI50 (HCT-116 colon) was 23.9 nM and the TGI (HCT-116 colon) was 296 nM. It also gave a GI50 (CAKI-1 renal) of 30 nM, a TGI (CAKI-1 renal) of 105 nM and a GI50 (MALME-3M melanoma) of 23 nM. For the same compound, the TGI (MALME-3M melanoma) was 63.1 nM, the GI50 (SF-539 CNS) was 21.5 nM and the TGI (SF-539 CNS) was 71.9 nM. The GI50 (SK-MEL-5 melanoma) was 24.3 nM, the TGI (SK-MEL-5 melanoma) was 70.6 nM and the GI50 (HOP-62 NSCLC) was 32.3 nM. For the same compound, the TGI (HOP-62 NSCLC) was 190 nM, the GI50 (NCI-H460 NSCLC) was 21.7 nM and the TGI (NCI-H460 NSCLC) was 90.4 nM. For the same compound, the GI50 (NCI-H322M lung) was 54.6 nM, the TGI (NCI-H322M lung) was 2210 nM and the GI50 (SN12C renal) was 47.4 nM. For the same compound, the TGI (SN12C renal) was 18600 nM, the GI50 (MDA-MB-468 breast) was 28.5 nM and the TGI (MDA-MB-468 breast) was 87.3 nM. It also gave a GI50 (M14 melanoma) of 32.1 nM, a TGI (M14 melanoma) of 196 nM and a GI50 (OVCAR-3 ovarian) of 24.4 nM. The TGI (OVCAR-3 ovarian) was 84.6 nM.
